For series [1] the following is noted: rcm bond, 22-membered ring.
Series [2] addresses cyclophilin A (Homo sapiens, UniProt P62937). Put plainly: Cyclophilin A TR-FRET competitive binding assay. Particulars: inhibition of cyclophilin binding; 5 nM CypA, 150 nM CsA-Cy5. As to the method: Cyclophilin A TR-FRET Competitive Binding Assay
Inhibitor potency was measured using a competitive binding assay with a time-resolved fluorescence resonance energy transfer (TR-FRET) readout. […] The total volume of the assay solution was 100 μL. […] An IC50 value was calculated using a four-parameter logistic fit.
A general note: In TR-FRET formats the signal depends on donor and acceptor labels being close together.

Series [3] has as its system human hepatoma Huh-7 cell line harboring a HCV replicon. Put plainly: HCV replicon assay (inhibition of viral replication, luciferase). The format is cell-based. Particulars: Hepatitis C virus; for EC50: Huh-7, 72 h; for inhibition at 1 µM: Huh-7, read-out: % inhibition at 1 μM. The method, then:
The anti-HCV activity of the compounds of this invention was tested in a human hepatoma Huh-7 cell line harboring a HCV replicon. The assay comprised the following steps:
Step 1: Compound Preparation and Serial Dilution
Serial dilution was performed in 100% DMSO in a 384-well plate. A solution containing a compound at 225-fold concentration of the starting final serial dilution concentration was prepared in 100% DMSO and 15 uL added to the pre-specified wells in column 3 or 13 of a polypropylene 384-well plate. The rest of the 384-well plate was filled with 10 uL 100% DMSO except for columns 23 and 24, where 10 uL of 500 uM a HCV protease inhibitor (ITMN-191) in 100% DMSO was added. […] The plate was then placed on a Biomek FX Workstation to start the serial dilution. The serial dilution was performed for ten cycles of 3-fold dilution from column 3 to 12 or from column 13 to 22.
Step 2: Cell Culture Plate Preparation and Compound Addition
To each well of a black polypropylene 384-well plate, 90 μL of cell media containing 1600 suspended Huh-7 HCV replicon cells was added with a Biotek uFlow Workstation. A volume of 0.4 μL of the compound solution was transferred from the serial dilution plate to the cell culture plate on a Biomek FX Workstation. The DMSO concentration in the final assay condition was 0.44%. The plates were incubated for 3 days at 37° C. with 5% CO2 and 85% humidity.
Step 3: Detection of Cytotoxicity and Inhibition of Viral Replication
b) Assessment of inhibition of viral replication: The calcein-PBS solution in the 384-well cell culture plate was aspirated with a Biotek EL405 plate-washer. A volume of 20 μL of Dual-Glo luciferase buffer (Promega, Dual-Glo Luciferase Assay Reagent, cat. #E298B) was added to each well of the plate with a Biotek uFlow Workstation. The plate was incubated for 10 minutes at room temperature. A volume of 20 μL of a solution containing 1:100 mixture of Dual-Glo Stop & Glo substrate (Promega, Dual-Glo Luciferase Assay Reagent, cat. #E313B) and Dual-Glo Stop & Glo buffer (Promega, Dual-Glo Luciferase Assay Reagent, cat. #E314B) was then added to each well of the plate with a Biotek uFlow Workstation. The plate was incubated at room temperature for 10 minutes before the luminescence signal was measured with a Perkin Elmer Envision Plate Reader.
The percent cytotoxicity was determined by calcein AM conversion to fluorescent product. The average fluorescent signal from the DMSO control wells were defined as 100% nontoxic. The individual fluorescent signal from testing compound treated well was divided by the average signal from DMSO control wells and then multiplied by 100% to get the percent viability. The percent anti-HCV replication activity was determined by the luminescence signal from the testing well compared to DMSO controls wells. The background signal was determined by the average luminescence signal from the HCV protease inhibitor treated wells and was subtracted from the signal from the testing wells as well as the DMSO control wells.
Where b is Hill's coefficient. See, for reference, Hill, A. V., The Possible Effects of the Aggregation of the Molecules of Hemoglobin on its Dissociation Curves, J. Physiol. 40: iv-vii. (1910).
% inhibition values at a specific concentration, for example 2 μM, can also be derived from the formula above.
The EC50's are presented as a % inhibition.
In general terms: A replicon is a self-replicating genome or part of one, used to study replication in cells.

Each structure is given as a SMILES string. Where two headings read alike, the source gives them in different places.

Sequence of cyclophilin A (P62937 whole entry, species assumed): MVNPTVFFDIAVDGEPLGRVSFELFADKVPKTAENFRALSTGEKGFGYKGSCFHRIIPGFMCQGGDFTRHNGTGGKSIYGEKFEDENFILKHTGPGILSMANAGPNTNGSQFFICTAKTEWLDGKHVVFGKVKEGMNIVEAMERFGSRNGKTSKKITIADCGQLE

With `CO[C@@H]1CC/C=C/CCCCOC(=O)[C@@H]2CCCN(N2)C(=O)[C@H](Cc2cccc(O[Si](C)(C)C(C)(C)C)c2)NC(=O)[C@H](C(C)C)NC(=O)[C@@H]1C`, in series [1] (from C=CCCCCOC(=O)[C@@H]1CCCN(C(=O)[C@H](Cc2cccc(O[Si](C)(C)C(C)(C)C)c2)NC(=O)[C@@H](NC(=O)[C@H](C)[C@@H](CCC=C)OC)C(C)C)N1, Grubbs II, DCE, 3.02 mM, 83.0 °C, 3.0 h), the ring closure, isolated yield amounted to 48%.

In series [1] (from C=CCC[C@@H](OC)[C@@H](C)C(=O)N[C@H](C(=O)N[C@@H](Cc1cccc(O[Si](C)(C)C(C)(C)C)c1)C(=O)N1CCC[C@@H](C(=O)OCc2cc(C=C)ccn2)N1)C(C)C, Hoveyda-Grubbs II, DCE, 2.69 mM, 80.0 °C, 3.0 h), `CO[C@@H]1CC/C=C/c2ccnc(c2)COC(=O)[C@@H]2CCCN(N2)C(=O)[C@H](Cc2cccc(O[Si](C)(C)C(C)(C)C)c2)NC(=O)[C@H](C(C)C)NC(=O)[C@@H]1C` returned a ring closure, isolated yield of 61%.

`CO[C@@H]1CCC=Cc2ccc3c(c2)[C@@H](CC3)OC(=O)[C@@H]2CCCN(N2)C(=O)[C@H](Cc2cccc(O[Si](C)(C)C(C)(C)C)c2)NC(=O)[C@H](C(C)C)NC(=O)[C@@H]1C` displayed a ring closure, isolated yield in series [1] (from C=CCC[C@@H](OC)[C@@H](C)C(=O)N[C@H](C(=O)N[C@@H](Cc1cccc(O[Si](C)(C)C(C)(C)C)c1)C(=O)N1CCC[C@@H](C(=O)O[C@@H]2CCc3ccc(C=C)cc32)N1)C(C)C, Hoveyda-Grubbs II (two portions), DCE, 3.16 mM, 83.0 °C, 6.0 h, 2 steps) of 14%.

Regarding `CO[C@@H]1CCC=Cc2cccc(c2)COC(=O)[C@@H]2CCCN(N2)C(=O)[C@H](Cc2cccc(O[Si](C)(C)C(C)(C)C)c2)NC(=O)[C@H](C(C)C)NC(=O)[C@@H]1C`, the ring closure, isolated yield in series [1] (from C=CCC[C@@H](OC)[C@@H](C)C(=O)N[C@H](C(=O)N[C@@H](Cc1cccc(O[Si](C)(C)C(C)(C)C)c1)C(=O)N1CCC[C@@H](C(=O)OCc2cccc(C=C)c2)N1)C(C)C, Grubbs I, DCM, 3.0 mM, 40.0 °C, 16.0 h) amounted to 75%. `CO[C@@H]1CCC=Cc2cccc(c2)[C@@H](C)NC(=O)[C@@H]2CCCN(N2)C(=O)[C@H](Cc2cccc(O[Si](C)(C)C(C)(C)C)c2)NC(=O)[C@H](C(C)C)NC(=O)[C@@H]1C`: the ring closure, isolated yield in series [1] (from C=CCC[C@@H](OC)[C@@H](C)C(=O)N[C@H](C(=O)N[C@@H](Cc1cccc(O[Si](C)(C)C(C)(C)C)c1)C(=O)N1CCC[C@@H](C(=O)N[C@H](C)c2cccc(C=C)c2)N1)C(C)C, Hoveyda-Grubbs II, DCE, 2.59 mM, 80.0 °C, 3.0 h) came to 22%. In the case of `CO[C@@H]1CCC=Cc2cccc(c2)[C@@H](C)OC(=O)[C@@H]2CCCN(N2)C(=O)[C@H](Cc2cccc(O[Si](C)(C)C(C)(C)C)c2)NC(=O)[C@H](C(C)C)NC(=O)[C@@H]1C`, in series [1] (from C=CCC[C@@H](OC)[C@@H](C)C(=O)N[C@H](C(=O)N[C@@H](Cc1cccc(O[Si](C)(C)C(C)(C)C)c1)C(=O)N1CCC[C@@H](C(=O)O[C@H](C)c2cccc(C=C)c2)N1)C(C)C, Hoveyda-Grubbs II, DCE, 2.68 mM, 83.0 °C, 3.0 h), the ring closure, isolated yield was 70%. In turn, `CO[C@@H]1[C@@H](C)[C@@H](OC)C=CC=CC[C@@H](C)OC(=O)[C@@H]2CCCN(N2)C(=O)[C@H](Cc2cccc(O[Si](C)(C)C(C)(C)C)c2)NC(=O)[C@H](C(C)C)NC(=O)[C@@H]1C` gave a ring closure, isolated yield in series [1] (from C=C/C=C\[C@H](OC)[C@H](C)[C@@H](OC)[C@@H](C)C(=O)N[C@H](C(=O)N[C@@H](Cc1cccc(O[Si](C)(C)C(C)(C)C)c1)C(=O)N1CCC[C@@H](C(=O)O[C@H](C)CC=C)N1)C(C)C, Grubbs I (two portions), DCM, 2.0 mM, 40.0 °C, 42.0 h) of 42%. Take `COc1ccc(C[C@@H]2NC(=O)[C@H](C)[C@H](OC)[C@@H](C)[C@@H](OC)C=CC=CCCOC(=O)[C@@H]3CCCN(N3)C(=O)[C@H](Cc3cccc(O[Si](C)(C)C(C)(C)C)c3)NC2=O)cc1`: the ring closure, isolated yield in series [1] (from C=C/C=C\[C@H](OC)[C@H](C)[C@@H](OC)[C@@H](C)C(=O)N[C@@H](Cc1ccc(OC)cc1)C(=O)N[C@@H](Cc1cccc(O[Si](C)(C)C(C)(C)C)c1)C(=O)N1CCC[C@@H](C(=O)OCCC=C)N1, Grubbs I, DCM, 2.52 mM, 40.0 °C, 24.0 h) was found to be 34%. For orientation: IC50 means the concentration at which inhibition is half-maximal. Read a high IC50 as weaker potency. In general, EC50 refers to the concentration that produces a half-maximal response. High values mean lower potency in that assay, low ones higher potency in that assay. For orientation: inhibition means the share of the control response that was lost under treatment. Take `COc1ccc(C[C@@H]2NC(=O)[C@H](C)[C@H](OC)[C@@H](C)[C@@H](OC)/C=C/C=C/CCOC(=O)[C@@H]3CCCN(N3)C(=O)[C@H](Cc3cccc(O)c3)NC2=O)cc1` [Compound 21, (13 E,15E)-(3S,6S,9R,10R,11S,12S,21S)-3-(3-Hydroxy-benzyl)-10,12-dimethoxy-6-(4-methoxy-benzyl)-9,11-dimethyl-19-oxa-1,4,7,25-tetraazabicyclo[19.3.1]pentacosa-13,15-diene-2,5,8,20-tetraone]: the IC50 in series [2] lay in the range of 101 to 1000 nM. In series [3], the EC50 is 1100 to 10000 nM and the inhibition at 1 µM is 18%. For the molecule `CO[C@@H]1CC/C=C/c2cccc(c2)[C@@H](C)OC(=O)[C@@H]2CCCN(N2)C(=O)[C@H](Cc2cccc(O)c2)NC(=O)[C@H](C(C)C)NC(=O)C1` [Compound 22, (E)-(2R,5S,11S,14S,18R)-11-(3-Hydroxy-benzyl)-14-isopropyl-18-methoxy-2-methyl-3-oxa-9,12,15,28-tetraaza-tricyclo[21.3.1.1*5,9*]octacosa-1(26),21,23(27),24-tetraene-4,10,13,16-tetraone], the IC50 in series [2] is < 100 nM. In addition, in series [3], the EC50 is < 1000 nM and the inhibition at 1 µM was found to be 70%. Molecule `CO[C@@H]1CC/C=C/CCCCOC(=O)[C@@H]2CCCN(N2)C(=O)[C@H](Cc2cccc(O)c2)NC(=O)[C@H](C(C)C)NC(=O)[C@@H]1C` [Compound 23, (E)-(3S,6S,9R,10R,21S)-3-(3-Hydroxy-benzyl)-6-isopropyl-10-methoxy-9-methyl-19-oxa-1,4,7,25-tetraaza-bicyclo[19.3.1]pentacos-13-ene-2,5,8,20-tetraone] registered an IC50 in series [2] of 101 to 1000 nM. In series [3], the EC50 is < 1000 nM and the inhibition at 1 µM amounted to 41%. `CCO[C@@H]1CC/C=C/c2cccc(c2)COC(=O)[C@@H]2CCCN(N2)C(=O)[C@H](Cc2cccc(O)c2)NC(=O)[C@H](C(C)C)NC(=O)[C@@H]1C` [Compound 24, (E)-(5S,11S,14S,17R,18R)-18-Ethoxy-11-(3-hydroxy-benzyl)-14-isopropyl-17-methyl-3-oxa-9,12,15,28-tetraaza-tricyclo[21.3.1.1*5,9*]octacosa-1(26),21,23(27),24-tetraene-4,10,13,16-tetraone]: the IC50 in series [2] is < 100 nM. In addition, in series [3], the EC50 was < 1000 nM and the inhibition at 1 µM was determined as 65%. `CO[C@@H]1[C@@H](C)[C@@H](OC)CCc2cccc(c2)CNC(=O)[C@@H]2CCCN(N2)C(=O)[C@H](Cc2cccc(O)c2)NC(=O)[C@H](C(C)C)NC(=O)[C@@H]1C` [Compound 25, (5S,11S,14S,17R,18R,19S,20S)-11-(3-Hydroxy-benzyl)-14-isopropyl-18,20-dimethoxy-17,19-dimethyl-3,9,12,15,28-pentaaza-tricyclo[21.3.1.1*5,9*]octacosa-1(27),23,25-triene-4,10,13,16-tetraone] showed an IC50 in series [2] of 101 to 1000 nM. In series [3], the EC50 was in the range of 1100 to 10000 nM and the inhibition at 1 µM came to 34%.

As for `CO[C@@H]1CC/C=C/C2=CC=C(COC(=O)[C@@H]3CCCN(N3)C(=O)[C@H](Cc3cccc(O)c3)NC(=O)[C@H](C(C)C)NC(=O)[C@@H]1C)S2` [Compound 26, (E)-(1S,13R,14R,17S,20S)-20-(3-Hydroxy-benzyl)-17-isopropyl-13-methoxy-14-methyl-3-oxa-27-thia-16,19,22,26-tetraaza-tricyclo[20.3.1.1*5,8*]heptacosa-5,7,9-triene-2,15,18,21-tetraone], in series [2], the IC50 is 101 to 1000 nM. Moreover, in series [3], the EC50 was in the range of 10100 to 100000 nM and the inhibition at 1 µM stood at 9%.

These data come from patent US8933015B2, “Macrocyclic inhibitors of flaviviridae viruses” (Gilead Sciences, Inc., priority 2010, dated 2015).
